Assay [1] has as its target T1, UBE2F (Homo sapiens, UniProt Q969M7).
T1 construct: recombinant, pET-28a with His-SUMO tag cleaved by Ulp1 (un-tagged), expressed in E. coli Rosetta 2(DE3) pLysS
T1 sequence (Q969M7 1-185): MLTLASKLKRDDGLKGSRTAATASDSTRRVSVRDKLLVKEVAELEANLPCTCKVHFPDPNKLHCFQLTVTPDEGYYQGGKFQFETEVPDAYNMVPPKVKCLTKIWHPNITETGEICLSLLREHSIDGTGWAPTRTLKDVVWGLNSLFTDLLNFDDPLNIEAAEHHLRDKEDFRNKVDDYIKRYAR
The assay is described as follows: E2 NEDD8 thioester assay, iFluor 680-NEDD8, SDS-PAGE fluorescence scan. In kind it is biochemical.

Assay [2] addresses T2, UBE2F (Homo sapiens, UniProt Q969M7, F153A/D154A/H165A).
T2 construct: recombinant, pET-28a with His-SUMO tag cleaved by Ulp1 (un-tagged), expressed in E. coli Rosetta 2(DE3) pLysS
T2 sequence (Q969M7 1-185 F153A/D154A/H165A): T1 sequence (Q969M7 1-185) with F153A, D154A, H165A
The assay is described as follows: thermal shift assay with Western blotting. To be noted: N152 pocket mutant. In kind it is binding.

The target in assay [3] is T1, UBE2F. The assay can be described thus: differential scanning fluorimetry, SYPRO orange. As to conditions: tested as mesylate salt; 2 μM UBE2F, 1 °C/min from 25 to 95 °C; maximum of a dose series (printed 'up to'). Format: binding.
Assay [4] has as its target T3, UBE2F (Homo sapiens, UniProt Q969M7, K97A/K99A/R121A).
T3 construct: recombinant, pET-28a with His-SUMO tag cleaved by Ulp1 (un-tagged), expressed in E. coli Rosetta 2(DE3) pLysS
T3 sequence (Q969M7 1-185 K97A/K99A/R121A): T1 sequence (Q969M7 1-185) with K97A, K99A, R121A
The assay can be described thus: thermal shift assay with Western blotting. Format: binding. To be noted: V98 pocket mutant.

Where a chain is given by its changes, count along the chain named.

In the case of `Cc1ccc(C(=O)N2CCN(c3ccc(NC(=O)/C=C/c4c[nH]c5ncccc45)cc3)CC2)cc1` [iV26-9-10-4, HA-9104], the half-inhibitory concentration (IC50) at UBE2F [1] was approximately 49 µM. Moreover, the thermal stabilization entry on UBE2F [2] was “N152 mutant was very thermo-stable and largely resistant to HA-9104-induced stabilization”; at UBE2F [4] it was “V98 mutant was a little more thermo-stable and less stabilized by HA-9104”. Besides, the dTm on UBE2F [3] is ~ 4 °C.

(Values after PMC9576757, “A small molecule inhibitor of the UBE2F-CRL5 axis induces apoptosis and radiosensitization in lung cancer” (Signal Transduction and Targeted Therapy, 2022).)
